# Results taken from US9982033B2, “Factor VIII polypeptide titers in cell cultures” (Novo Nordisk A/S, priority 2007, dated 2018).
# Legend:
# [1] = tested on: Factor VIII producing cells; assay: Supplementing serum-free cell culture medium of Factor VIII producing cells with OPLS (high-cell density perfusion model); type: cell-based, Chinese Hamster; settings: for Factor VIII productivity / Factor VIII protein specific activity: 24 hours, 35° C.
# Description: Cell line: The cell line used for transfection, dhfr− CHO cells DUKX-B11 cells (Urlaub, G. & Chasin, L. A. (1980) Proc. Natl. Acad. Sci. USA 77, 4216-4220), was adapted to grow in suspension cultures using serum-free medium supplemented with ribonucleosides and deoxyribonucleosides.
# Expression vector: Factor VIII transcription is achieved using an adenovirus-SV40 promoter and a selection by a di-hydrofolate reductase selection marker. The expressed Factor VIII molecule consist of the heavy chain (HC) and light chain (LC) of Factor VIII connected with a small linker derived from the B-domain. The B-domain has been removed, since this allows for higher expression of Factor VIII and the biological activity of Factor VIII is retained.
# Cell culturing during serum free medium supplementation experiments: For media supplement experiments cells were cultivated in a high-cell density perfusion model in 50 mL shaker tubes with vented cap at 35° C. in serum free medium, as described below. Cells were cultivated in large shaker flasks at 37° C. Cell viability was measured at cell harvest, and this was always >95%. Harvested cells were re-suspended into fresh medium. 2.5 mL of the harvested and re-suspended cells was added to 2.5 mL of fresh medium containing the supplement to give a total volume of 5 mL, with a concentration of 1×10^7 cells/mL. Shaker tubes were then placed in shaker at 35° C. and 250 rpm. After 24 hours, samples were assayed for cell density, viability, CoA, ELISA and Factor VIII protein integrity by Western blot.
# CoA assay (Factor VIII activity assay): In the presence of calcium and phospholipids, Factor X is activated to Factor Xa by Factor IXa. This generation is greatly stimulated by Factor VIII, which may be considered as a cofactor in this reaction. By using optimal amounts of Ca^2+ and phospholipids and an excess of Factors IXa and X, the rate of activation of Factor X is solely dependent on the amount of Factor VIII. Factor Xa hydrolyses the chromogenic substrate S-2765 thus liberating the chromophoric group, pNA. The colour is then read photometrically at 405 nm. The generated Factor Xa and thus the intensity of colour is proportional to the Factor VIII activity in the sample. Hydrolysis of S-2765 by thrombin formed is prevented by the addition of the synthetic thrombin inhibitor, I-2581, together with the substrate (Chromogenix Coatest SP Factor VIII, diaPharma)
# ELISA: Strip wells are pre-coated with sheep polyclonal antibody to human Factor VIII. Samples are diluted and applied to the wells. The Factor VIII antigen present binds to the coated antibody. After washing away unbound material, peroxidase-labeled sheep detecting antibody is applied and allowed to bind to the captured Factor VIII. The wells are again washed and a solution of TMB (the peroxidase substrate tetramethylbenzidine) is applied and allowed to react for a fixed period of time. A blue color develops which changes to yellow upon quenching the reaction with acid. The color formed is measured spectrophotometrically in a microplate reader at 450 nm. The absorbance at 450 nm is directly proportional to the quantity of Factor VIII antigen captured onto the well (VisuLize, FVIII antigen kit, Affinity biologicals). The assay is calibrated using purified B domain deleted Factor VIII.
# OPLS was supplemented to serum free cell culture medium in the indicated concentration according to the experimental details described under materials and methods. The results can be seen from the below Table 3 and from FIGS. 2A and 2B.
# [2] = tested on: BDD Factor VIII producing cells (1C5-SF cell line); assay: Supplementing serum-free medium of BDD Factor VIII producing cells with O-phospho-L-serine and/or a plant hydrolysate; type: cell-based; settings: O-phospho-L-serine 20 mM and/or plant hydrolysate 5 mg/ml, four days after seeding
# Description: ELISA: Strip wells are pre-coated with sheep polyclonal antibody to human Factor VIII. Samples are diluted and applied to the wells. The Factor VIII antigen present binds to the coated antibody. After washing away unbound material, peroxidase-labeled sheep detecting antibody is applied and allowed to bind to the captured Factor VIII. The wells are again washed and a solution of TMB (the peroxidase substrate tetramethylbenzidine) is applied and allowed to react for a fixed period of time. A blue color develops which changes to yellow upon quenching the reaction with acid. The color formed is measured spectrophotometrically in a microplate reader at 450 nm. The absorbance at 450 nm is directly proportional to the quantity of Factor VIII antigen captured onto the well (VisuLize, FVIII antigen kit, Affinity biologicals). […]
# F25 ELISA: ELISA: Strip wells are pre-coated with sheep polyclonal antibody to human Factor VIII. […] The color formed is measured spectrophotometrically in a microplate reader at 450 nm. The absorbance at 450 nm is directly proportional to the quantity of Factor VIII antigen captured onto the well. […]
# The total Factor VIII antigen content of each culture was determined by sandwich ELISA. […]
# [3] = OPLS 0.03 mM in serum free medium
# [4] = OPLS 0.1 mM in serum free medium
# [5] = OPLS 0.3 mM in serum free medium
# [6] = OPLS 10 mM in serum free medium
# [7] = OPLS 30 mM in serum free medium
compound,measurement,setting,value
"N[C@@H](COP(=O)(O)O)C(=O)O [OPLS, O-Phospho-L-Serine]",Factor VIII productivity,[1]; [3],0.068 pcd
same,Factor VIII protein specific activity,[1]; [3],11.8 U/microg
same,Factor VIII productivity,[1]; [4],0.062 pcd
same,Factor VIII protein specific activity,[1]; [4],12.8 U/microg
same,Factor VIII productivity,[1]; [5],0.052 pcd
same,Factor VIII protein specific activity,[1]; [5],12.2 U/microg
same,Factor VIII productivity,[1]; OPLS 1 mM in serum free medium,0.058 pcd
same,Factor VIII protein specific activity,[1]; OPLS 1 mM in serum free medium,12.6 U/microg
same,Factor VIII productivity,[1]; OPLS 3 mM in serum free medium,0.066 pcd
same,Factor VIII protein specific activity,[1]; OPLS 3 mM in serum free medium,15.8 U/microg
same,Factor VIII productivity,[1]; [6],0.10 pcd
same,Factor VIII protein specific activity,[1]; [6],15.4 U/microg
same,Factor VIII productivity,[1]; [7],0.18 pcd
same,Factor VIII protein specific activity,[1]; [7],15.0 U/microg
same,specific productivity of Factor VIII producing cells,"[1]; conclusion in words, FIG. 2A",increases
same,specific activity of Factor VIII,"[1]; conclusion in words, FIG. 2B",increases
same,proportion of Factor VIII with intact heavy chain C-terminal in the medium,[2]; F25 ELISA versus total Factor VIII antigen,increased
same,quality of recombinant Factor VIII from cell cultures (specific activity),"[2]; CDM4CHO medium, FIG. 3A-C",improved
same,yield of recombinant Factor VIII from cell cultures,"[2]; CDM4CHO medium, FIG. 3A-C",improved
